According to US11571454B2, “Anticancer peptides that synergistically enhance chemotherapeutic potency” (The Penn State Research Foundation, priority 2017, dated 2023):
Marks after values point to notes of the source that are not given here.

Assays:
[1] = test system: patient-derived tumor cell spheroids (EOC15, 17, 19); test: Ex vivo 3D tumor spheroid culture; type: cell-based, human; conditions: 2 μM cisplatin or 4 μM MAD1 alone, 48 hours
Procedure: EOC patient-derived cells were cultured in 1:1 MCDB-105: M199 supplemented with 10% FBS and 1% penicillin-streptomycin. EOC patient-derived cells were provided by Dr. Katherine M. Aird under an Institutional Review Board-approved protocol. EOC patient-derived cells were collected from patient ascites fluid after paracentesis procedures. Cells were routinely tested for mycoplasma as previously described. […] Spheroid length and width was calculated using ImageJ. Spheroid volume was calculated using the following equation […] Statistical Methods […] IC50 values are reported as mean values±standard deviation. […] Pore size frequency distribution was completed by ImageJ FIJI on 4 independent cells and n=30 pores from SEM images. […] Individual UV-Vis and CD spectra, as well as fluorescent confocal and TEM micrographs, shown are representative plots from three individual experiments. CD data is with a variance in ellipticity of 0.2 millidegrees at each wavelength. Relative fluorescence data calculated from fluorescent confocal images represents the average of 10 independent measurements±standard deviation. For spheroid volume analysis, a Kruskal-Wallis test and Dunn's multiple comparisons test was performed using GraphPad Prism 8.

[2] = test system: OVCAR-3 cells; test: Annexin V-PI flow cytometry apoptosis assay; type: cell-based, human; conditions: IC50 of MAD1 (14 μM)
Procedure: OVCAR-3 cells were first seeded at 2×10^5 cells/well in 12 well plates. The cells were then allowed to adhere overnight. […] Wells were left in 5% serum media for negative and compensation controls. Cells were then trypsinized, washed in cold PBS, and centrifuged at 3,000 rpm at 15° C. for 5 min. After the supernatant was aspirated, the cells were resuspended in 100 μL of Annexin V Binding Buffer. In the dark, 5 μL of FITC Annexin V and 10 μL of Propidium Iodine solution were added to the cells, with compensation controls of a negative control with no staining, a FITC Annexin V only control, and a PI only control. The cells were then vortexed gently to combine and allowed to incubate for 15 min. at room temperature. 400 μL of Annexin V Binding Buffer was then added to each tube and stored on ice prior to analyzing by flow cytometry.
Flow cytometry was conducted on a LSRFortessa Flow Cytometer (BD Biosciences, Franklin Lakes, N.J.) using 488 nm and 532 nm lasers for FITC and PE-Texas Red signals to detect Annexin V and PI, respectively. Compensation was completed for 10,000 cells, and experiments were conducted over 20,000 cells.

[3] = Liposome disruption (OD600), normal membrane model
Procedure: (§1) Liposomes were prepared by extrusion techniques according to previous methods. Briefly, all liposomes were prepared in 2×concentration (5 mM). Healthy and cancer liposomal mimicking membranes were prepared with 72:23:[…] phosphatidylcholine (POPC):phosphatidylethanolamine (DOPE):phosphatidylserine (POPS) lipids, respectively. The lipids dissolved in chloroform were mixed in proper molar proportions before being evaporated under a stream of argon. The lipid film was then dried completely by lyophilization overnight. […] The extruded liposomes were then dialyzed in 3500 MWCO dialysis cassettes against water. Parallel optical density experiments were conducted measuring the absorbance at 600 nm (OD600) to track the kinetics and specificity of membrane disruption. Measurements were taken every 30 seconds for the first 10 min., followed by measurements every minute until 15 min.

[4] = test system: MS S. aureus; conditions: 24 hours, Gram Positive
[5] = Liposome disruption (OD600), cancer membrane model; conditions: OD600 and visual flocculates
Procedure: as §1

[6] = test system: polymicrobial panel (six bacterial lines); test: Antimicrobial activity against polymicrobial panel; type: cell-based

H-KRWHWWRRHWVVW-NH2 [MAD1]
spheroid size, single agent [1]: minimal reduction in size | cell necrosis (% of population) ([2]; 2 hours): 16% | late apoptotic phenotype (% of cells) ([2]; 2 hours): 65% | early apoptotic stage (% of cells) ([2]; 24 hours): 19% | late apoptotic stage (% of cells) ([2]; 24 hours): 77% | disruption/interaction with normal (healthy) membrane liposomes [3]: did not lyse | MIC (μM) MS S. aureus [4]: >80^a μM | disruption/lysis of cancer membrane liposomes [5]: significant membrane destabilization and subsequent lysis | antimicrobial activity against polymicrobial panel [6]: bactericidal activity
